The target in test [1] is T1, hGluN1/hGluN2A (Homo sapiens, UniProt Q05586+Q12879). Also on record: gene GRIN1. The settings on record: -60 mV; 1 mM L-glutamate, 100 µM glycine; pH 7.3.
Test [2] concerns the target T2, human plasmatic butyrylcholinesterase (hBChE) (Homo sapiens, UniProt P06276).
T2 construct: gene BCHE
Nature of the test: biochemical.

Test [3] concerns the target T3, hGluN1/hGluN2B (Homo sapiens, UniProt Q05586+Q13224). Nature of the test: cell-based. Conditions: HEK293; -60 mV, 1 mM L-glutamate. On the set-up: gene GRIN1; cDNA vectors for human GluN1-1a and GluN2B co-transfected with GFP in HEK293 cells; diheteromeric receptor; whole-cell voltage-clamp electrophysiology, inhibition of steady-state L-glutamate-induced currents at -60 mV. The procedure: (§1) First, we determined the relative inhibition of all novel compounds on the two major diheteromeric NMDA receptor subtypes in the adult cortex – GluN1/GluN2A and GluN1/GluN2B [1] – using a clinically relevant concentration (3 µM). We kept the measured cells at a membrane potential of -60 mV, and the values of relative inhibition by the compounds were calculated from the L-glutamate-induced responses of human versions of the GluN1/GluN2A (hGluN1/hGluN2A) and GluN1/GluN2B (hGluN1/hGluN2B) receptors obtained under steady-state conditions. […] Specifically, in the case of hGluN1/hGluN2A receptors, we obtained relative inhibition values ranging from ∼5% for compound 3h to ∼93% for compound 6f, while for hGluN1/hGluN2B receptors, we measured values ranging from ∼3% for compound 3i to ∼92% for compound 6g at a fixed dose of 3 µM of the tested compound. […] It can be assumed that the positive and negative effects of a given inhibitor of the NMDA receptor in vivo are caused by their affinity and the kinetics of inhibition, in addition to their availability in the CNS. […] In further experiments, we generated concentration-response curves for 6f (0.03-10 µM) and 3l (0.3-300 µM) on both hGluN1/hGluN2A and hGluN1/hGluN2B receptors at negative (-60 mV) and positive (40 mV) membrane potentials (Fig. 2A-D). […] (A, C) Representative whole-cell voltage-clamp recordings of HEK293 cells expressing hGluN1/hGluN2A or hGluN1/hGluN2B receptors showing the inhibitory effects of compound 6f (0.03 - 300 µM) and compound 3l (0.3 - 300 µM) at membrane potentials of 40 mV (A) and -60 mV (C). Glu = 1 mM L-glutamate. (B, D) Normalized inhibitory concentration-response curves for compound 6f and compound 3l for hGluN1/hGluN2A and hGluN1/hGluN2B receptors at membrane potentials of 40 mV (B) and -60 mV (D). Concentration-response curves were fitted using Equation 1; the resulting IC50 values, Hill coefficients, and the numbers of cells measured for each membrane potential are shown in Table 3.

The target in test [4] is T4, human recombinant AChE (hAChE) (Homo sapiens, UniProt P22303).
T4 construct: recombinant enzyme purchased from Merck
Nature of the test: modified Ellman's method. It is filed as biochemical. For orientation: DTNB colorimetry detects thiols as they appear.

In test [5] the target is T1, hGluN1/hGluN2A. Nature of the test: cell-based. Also on record: gene GRIN1; cDNA vectors for human GluN1-1a and GluN2A co-transfected with GFP in HEK293 cells; diheteromeric receptor; whole-cell voltage-clamp electrophysiology, inhibition of steady-state L-glutamate-induced currents at -60 mV. The settings on record: HEK293; -60 mV, 1 mM L-glutamate. The procedure:
as §1

Test [6] has as its target T3, hGluN1/hGluN2B. On the set-up: gene GRIN1. Conditions: -60 mV; 1 mM L-glutamate, 100 µM glycine; pH 7.3.

Where a name gives a salt, the structure may show the parent alone. A value given as a limit tells only on which side of the number the result lay.

T3 sequence (Q13224 27-1484, other chains not shown): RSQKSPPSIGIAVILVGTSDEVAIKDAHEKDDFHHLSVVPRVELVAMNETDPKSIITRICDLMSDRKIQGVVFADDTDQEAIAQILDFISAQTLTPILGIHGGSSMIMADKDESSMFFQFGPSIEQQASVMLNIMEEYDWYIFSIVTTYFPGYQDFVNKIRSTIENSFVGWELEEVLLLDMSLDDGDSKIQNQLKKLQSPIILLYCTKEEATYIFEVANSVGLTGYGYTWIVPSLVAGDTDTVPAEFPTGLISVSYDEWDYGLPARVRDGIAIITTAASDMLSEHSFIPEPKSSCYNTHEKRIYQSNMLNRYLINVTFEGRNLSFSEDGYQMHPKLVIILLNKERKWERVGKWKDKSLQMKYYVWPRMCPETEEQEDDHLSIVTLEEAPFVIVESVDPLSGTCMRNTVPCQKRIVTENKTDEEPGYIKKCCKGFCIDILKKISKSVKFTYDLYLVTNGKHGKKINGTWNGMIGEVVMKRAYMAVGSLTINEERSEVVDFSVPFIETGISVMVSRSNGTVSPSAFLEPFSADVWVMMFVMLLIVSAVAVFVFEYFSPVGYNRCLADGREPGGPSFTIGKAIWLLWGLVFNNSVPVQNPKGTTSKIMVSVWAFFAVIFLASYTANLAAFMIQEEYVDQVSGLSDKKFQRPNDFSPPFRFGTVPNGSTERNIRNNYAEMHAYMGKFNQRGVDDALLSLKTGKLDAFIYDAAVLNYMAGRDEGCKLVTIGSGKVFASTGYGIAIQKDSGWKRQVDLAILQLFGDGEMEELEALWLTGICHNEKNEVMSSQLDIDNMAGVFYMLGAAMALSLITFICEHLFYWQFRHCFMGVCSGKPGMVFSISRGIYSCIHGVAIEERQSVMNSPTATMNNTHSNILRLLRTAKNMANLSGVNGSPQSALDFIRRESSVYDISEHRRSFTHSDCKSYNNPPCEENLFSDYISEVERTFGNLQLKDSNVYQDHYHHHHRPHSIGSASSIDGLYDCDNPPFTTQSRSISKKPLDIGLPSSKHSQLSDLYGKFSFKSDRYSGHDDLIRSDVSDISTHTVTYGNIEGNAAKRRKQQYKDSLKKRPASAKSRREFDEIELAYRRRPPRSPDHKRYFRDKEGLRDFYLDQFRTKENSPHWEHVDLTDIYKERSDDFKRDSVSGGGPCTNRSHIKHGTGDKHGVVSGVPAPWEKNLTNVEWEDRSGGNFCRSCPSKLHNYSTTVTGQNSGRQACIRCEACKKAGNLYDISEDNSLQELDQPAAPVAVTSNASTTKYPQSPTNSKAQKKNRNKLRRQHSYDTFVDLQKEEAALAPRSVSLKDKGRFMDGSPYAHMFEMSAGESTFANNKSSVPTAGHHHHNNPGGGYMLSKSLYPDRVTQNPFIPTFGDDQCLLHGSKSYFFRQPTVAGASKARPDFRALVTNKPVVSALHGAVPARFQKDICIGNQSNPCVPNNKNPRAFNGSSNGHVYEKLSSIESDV
T1 sequence (Q12879 23-1464, other chains not shown): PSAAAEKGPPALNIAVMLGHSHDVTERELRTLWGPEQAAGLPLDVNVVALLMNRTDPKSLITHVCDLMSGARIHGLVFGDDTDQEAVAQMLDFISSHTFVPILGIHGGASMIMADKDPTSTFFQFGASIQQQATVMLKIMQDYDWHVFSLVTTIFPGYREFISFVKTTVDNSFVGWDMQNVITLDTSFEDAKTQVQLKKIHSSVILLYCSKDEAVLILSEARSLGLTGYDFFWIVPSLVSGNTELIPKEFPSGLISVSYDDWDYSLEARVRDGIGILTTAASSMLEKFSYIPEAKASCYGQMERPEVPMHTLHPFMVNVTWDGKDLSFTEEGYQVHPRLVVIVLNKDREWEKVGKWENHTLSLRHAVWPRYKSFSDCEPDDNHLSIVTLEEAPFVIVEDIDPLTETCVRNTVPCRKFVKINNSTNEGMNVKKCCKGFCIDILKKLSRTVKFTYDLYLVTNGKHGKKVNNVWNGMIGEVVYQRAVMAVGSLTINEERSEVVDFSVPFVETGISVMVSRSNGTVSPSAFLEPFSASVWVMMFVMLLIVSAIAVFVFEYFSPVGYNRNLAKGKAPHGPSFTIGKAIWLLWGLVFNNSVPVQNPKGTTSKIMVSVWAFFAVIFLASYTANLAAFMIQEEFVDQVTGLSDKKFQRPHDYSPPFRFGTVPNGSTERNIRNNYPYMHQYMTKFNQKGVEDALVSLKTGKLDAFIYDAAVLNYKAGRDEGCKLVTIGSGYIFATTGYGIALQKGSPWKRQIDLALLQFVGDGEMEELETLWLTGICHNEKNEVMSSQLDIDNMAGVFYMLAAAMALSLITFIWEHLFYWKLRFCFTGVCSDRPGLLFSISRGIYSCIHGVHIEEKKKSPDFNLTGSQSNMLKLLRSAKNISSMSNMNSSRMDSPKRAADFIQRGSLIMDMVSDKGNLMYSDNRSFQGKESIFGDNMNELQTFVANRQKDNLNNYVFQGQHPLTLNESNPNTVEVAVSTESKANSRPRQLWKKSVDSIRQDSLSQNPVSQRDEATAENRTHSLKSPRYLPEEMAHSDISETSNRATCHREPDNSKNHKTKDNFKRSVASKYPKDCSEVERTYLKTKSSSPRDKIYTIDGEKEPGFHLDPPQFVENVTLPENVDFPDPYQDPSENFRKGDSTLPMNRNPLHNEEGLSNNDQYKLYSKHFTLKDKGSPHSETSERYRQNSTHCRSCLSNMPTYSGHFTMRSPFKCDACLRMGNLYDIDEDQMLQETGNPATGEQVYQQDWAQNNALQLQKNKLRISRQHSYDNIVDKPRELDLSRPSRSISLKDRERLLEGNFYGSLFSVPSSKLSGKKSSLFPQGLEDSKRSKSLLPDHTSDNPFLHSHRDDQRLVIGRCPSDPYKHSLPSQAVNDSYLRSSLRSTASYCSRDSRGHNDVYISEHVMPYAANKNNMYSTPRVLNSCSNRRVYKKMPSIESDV
T4 sequence (P22303 32-614): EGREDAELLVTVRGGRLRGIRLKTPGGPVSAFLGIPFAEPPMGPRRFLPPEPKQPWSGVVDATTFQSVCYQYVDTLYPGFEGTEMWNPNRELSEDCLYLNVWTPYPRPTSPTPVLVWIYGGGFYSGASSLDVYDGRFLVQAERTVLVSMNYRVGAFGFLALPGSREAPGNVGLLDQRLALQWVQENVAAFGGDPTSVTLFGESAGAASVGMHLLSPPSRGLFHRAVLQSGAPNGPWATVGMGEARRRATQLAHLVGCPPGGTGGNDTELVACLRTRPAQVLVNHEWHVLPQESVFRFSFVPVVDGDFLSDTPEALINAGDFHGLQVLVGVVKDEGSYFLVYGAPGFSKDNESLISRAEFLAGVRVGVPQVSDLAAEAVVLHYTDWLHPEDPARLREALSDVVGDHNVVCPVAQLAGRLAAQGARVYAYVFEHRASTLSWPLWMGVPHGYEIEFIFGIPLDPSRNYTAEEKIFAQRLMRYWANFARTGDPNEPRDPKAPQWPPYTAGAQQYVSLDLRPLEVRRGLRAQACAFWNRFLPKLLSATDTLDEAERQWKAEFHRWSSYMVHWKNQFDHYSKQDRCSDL
T2 sequence (P06276 29-602): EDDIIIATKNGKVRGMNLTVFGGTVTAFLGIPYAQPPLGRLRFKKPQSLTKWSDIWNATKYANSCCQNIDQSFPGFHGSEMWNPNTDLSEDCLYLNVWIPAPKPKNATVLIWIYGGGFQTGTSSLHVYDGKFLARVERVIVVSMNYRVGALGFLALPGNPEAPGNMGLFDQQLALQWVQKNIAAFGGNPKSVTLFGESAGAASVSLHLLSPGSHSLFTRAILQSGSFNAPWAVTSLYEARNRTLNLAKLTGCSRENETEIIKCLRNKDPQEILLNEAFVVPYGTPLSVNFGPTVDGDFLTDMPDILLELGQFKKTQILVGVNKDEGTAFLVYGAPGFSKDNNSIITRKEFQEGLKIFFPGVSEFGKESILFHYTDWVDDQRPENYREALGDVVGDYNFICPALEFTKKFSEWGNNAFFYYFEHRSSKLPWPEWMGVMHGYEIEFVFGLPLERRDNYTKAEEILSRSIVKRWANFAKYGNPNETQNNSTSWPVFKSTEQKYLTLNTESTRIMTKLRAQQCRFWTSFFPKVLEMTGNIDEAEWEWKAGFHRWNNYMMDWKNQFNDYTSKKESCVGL

Turning to `CNC1c2ccccc2CCc2ccccc21` [3a, N-methyl-10,11-dihydro-5H-dibenzo[a,d][7]annulen-5-amine hydrochloride], the “RI (%) at 3 μM” value on hGluN1/hGluN2A [1] is 82.34 ± 3.25%. Besides, the IC50 in test [2] and in test [4] was more than 100 µM each time. The compound also displayed an inhibition at 3 µM against hGluN1/hGluN2B [3] of 71 ± 1.75%.
Turning to `CCNC1c2ccccc2CCc2ccccc21` [3b, N-ethyl-10,11-dihydro-5H-dibenzo[a,d][7]annulen-5-amine hydrochloride], the IC50 in test [2] and in test [4] was more than 100 µM in each case. In addition, the values for the inhibition at 3 µM against hGluN1/hGluN2B [3] and against hGluN1/hGluN2A [5] were 51.8 ± 3.39% and 34 ± 4.6%, respectively.
As to `CC(C)NC1c2ccccc2CCc2ccccc21` [3c, N-isopropyl-10,11-dihydro-5H-dibenzo[a,d][7]annulen-5-amine hydrochloride], the half-inhibitory concentration (IC50) in test [2] and in test [4] was more than 100 µM throughout. The inhibition at 3 µM at hGluN1/hGluN2B [3] amounted to 76.9 ± 3.57%; against hGluN1/hGluN2A [5] it was 52.2 ± 5.23%.
With `c1ccc2c(c1)CCc1ccccc1C2NC1CC1` [3d, N-cyclopropyl-10,11-dihydro-5H-dibenzo[a,d][7]annulen-5-amine hydrochloride], the IC50 in test [2] and in test [4] was more than 100 µM in each case. In addition, the results for the inhibition at 3 µM against hGluN1/hGluN2B [3] and at hGluN1/hGluN2A [5] were 53.6 ± 3.16% and 40.1 ± 3.42%, respectively.
In the case of `CCCCNC1c2ccccc2CCc2ccccc21` [3e, N-butyl-10,11-dihydro-5H-dibenzo[a,d][7]annulen-5-amine hydrochloride], the half-maximal inhibitory concentration (IC50) in test [2] and in test [4] was more than 100 µM each time. Moreover, the figures for the inhibition at 3 µM on hGluN1/hGluN2B [3] and on hGluN1/hGluN2A [5] were 85.8 ± 2.19% and 76.4 ± 4.03%, respectively.
Consider `CC(C)CNC1c2ccccc2CCc2ccccc21` [3f, N-isobutyl-10,11-dihydro-5H-dibenzo[a,d][7]annulen-5-amine hydrochloride], for which the IC50 in test [2] and in test [4] was more than 100 µM throughout. The “RI (%) at 3 μM” value on hGluN1/hGluN2B [6] is recorded as 91.62 ± 0.99%. On hGluN1/hGluN2A [5], this compound had an inhibition at 3 µM of 76.8 ± 2.99%.
Compound `c1ccc2c(c1)CCc1ccccc1C2NC1CCCCC1` [3g, N-cyclohexyl-10,11-dihydro-5H-dibenzo[a,d][7]annulen-5-amine hydrochloride] returned an IC50 in test [2] of 14.4 ± 1.3 µM. The “RI (%) at 3 μM” value at hGluN1/hGluN2B [6] turned out to be 85.95 ± 3.13%. Besides, the inhibition at 3 µM against hGluN1/hGluN2A [5] is 79.4 ± 2.06%.
Consider `c1ccc2c(c1)CCc1ccccc1C2N1CCCCC1` [3h, 1-(10,11-dihydro-5H-dibenzo[a,d][7]annulen-5-yl)piperidine hydrochloride], for which the IC50 in test [2] and in test [4] was more than 100 µM in each case. Besides, the inhibition at 3 µM stood at 5.2 ± 1.56% at hGluN1/hGluN2B [3] and 5.4 ± 1.39% against hGluN1/hGluN2A [5].
Turning to `c1ccc2c(c1)CCc1ccccc1C2N1CCOCC1` [3i, 4-(10,11-dihydro-5H-dibenzo[a,d][7]annulen-5-yl)morpholine hydrochloride], the IC50 in test [2] and in test [4] was more than 100 µM in each case. Besides, the inhibition at 3 µM at hGluN1/hGluN2B [3] stood at 3.43 ± 1.33%; against hGluN1/hGluN2A [5] it was 6.78 ± 1.67%.
Consider `COCCNC1c2ccccc2CCc2ccccc21` [3j, N-(2-methoxyethyl)-10,11-dihydro-5H-dibenzo[a,d][7]annulen-5-amine hydrochloride], for which the IC50 in test [2] and in test [4] was more than 100 µM throughout. For the same compound, the inhibition at 3 µM was 66.6 ± 3.9% at hGluN1/hGluN2B [3] and 34.9 ± 4.8% against hGluN1/hGluN2A [5].
With `c1ccc2c(c1)CCc1ccccc1C2N1CCCC1` [3k, 1-(10,11-dihydro-5H-dibenzo[a,d][7]annulen-5-yl)pyrrolidine hydrochloride], the IC50 in test [2] and in test [4] was more than 100 µM throughout. The inhibition at 3 µM on hGluN1/hGluN2B [3] came out at 62.1 ± 3.44%; against hGluN1/hGluN2A [5] it was 49.8 ± 3.27%.
As for `CN1CCN(C2c3ccccc3CCc3ccccc32)CC1` [3m, 1-(10,11-dihydro-5H-dibenzo[a,d][7]annulen-5-yl)-4-methylpiperazine dihydrochloride], the IC50 in test [2] and in test [4] was more than 100 µM throughout. In addition, the figures for the inhibition at 3 µM at hGluN1/hGluN2B [3] and against hGluN1/hGluN2A [5] were 9.49 ± 2.17% and 9.7 ± 2.41%, respectively.
On to `CCN(CC)C1c2ccccc2CCc2ccccc21` [3n, N,N-diethyl-10,11-dihydro-5H-dibenzo[a,d][7]annulen-5-amine hydrochloride], for which the IC50 in test [2] and in test [4] was more than 100 µM throughout. The inhibition at 3 µM is 75 ± 3.14% against hGluN1/hGluN2B [3] and 68.4 ± 4.84% against hGluN1/hGluN2A [5].
Consider `CCN1CCN(C2c3ccccc3CCc3ccccc32)CC1` [3o, 1-(10,11-dihydro-5H-dibenzo[a,d][7]annulen-5-yl)-4-ethylpiperazine dihydrochloride], for which the IC50 in test [2] and in test [4] was more than 100 µM throughout. Further, the inhibition at 3 µM on hGluN1/hGluN2B [3] came to 5.22 ± 1.49%; against hGluN1/hGluN2A [5], 7.64 ± 0.84%.
Take `CNC1c2ccccc2C=Cc2ccccc21` [6a, N-methyl-5H-dibenzo[a,d][7]annulen-5-amine hydrochloride]: the IC50 in test [2] and in test [4] was more than 100 µM in each case. The inhibition at 3 µM against hGluN1/hGluN2B [3] is 68.9 ± 3.57%; against hGluN1/hGluN2A [5], 54.3 ± 3.11%.
Take `CCNC1c2ccccc2C=Cc2ccccc21` [6b, N-ethyl-5H-dibenzo[a,d][7]annulen-5-amine hydrochloride]: the IC50 in test [2] and in test [4] was more than 100 µM each time. In addition, the inhibition at 3 µM on hGluN1/hGluN2B [3] is 59.9 ± 3.15%; against hGluN1/hGluN2A [5] it was 39.9 ± 4.78%.
Take `CC(C)NC1c2ccccc2C=Cc2ccccc21` [6c, N-isopropyl-5H-dibenzo[a,d][7]annulen-5-amine hydrochloride]: the half-inhibitory concentration (IC50) in test [2] and in test [4] was more than 100 µM throughout. In addition, the inhibition at 3 µM at hGluN1/hGluN2B [3] was determined as 76 ± 2.22%; against hGluN1/hGluN2A [5], 75.6 ± 2.36%.
For the compound `C1=Cc2ccccc2C(NC2CC2)c2ccccc21` [6d, N-cyclopropyl-5H-dibenzo[a,d][7]annulen-5-amine hydrochloride], the IC50 in test [2] and in test [4] was more than 100 µM throughout. For the same compound, the results for the inhibition at 3 µM on hGluN1/hGluN2B [3] and against hGluN1/hGluN2A [5] were 57.2 ± 3.27% and 45 ± 3.55%, respectively.
For the compound `CCCCNC1c2ccccc2C=Cc2ccccc21` [6e, N-butyl-5H-dibenzo[a,d][7]annulen-5-amine hydrochloride], the IC50 in test [2] and in test [4] was more than 100 µM throughout. In addition, the inhibition at 3 µM stood at 79.2 ± 2.84% against hGluN1/hGluN2B [3] and 81.1 ± 2.62% at hGluN1/hGluN2A [5].
Consider `C1=Cc2ccccc2C(N2CCOCC2)c2ccccc21` [6i, 4-(5H-dibenzo[a,d][7]annulen-5-yl)morpholine hydrochloride], for which the IC50 in test [2] and in test [4] was more than 100 µM in each case. Also, the inhibition at 3 µM was found to be 57.6 ± 3.47% against hGluN1/hGluN2B [3] and 31.9 ± 4.16% on hGluN1/hGluN2A [5].
As for `COCCNC1c2ccccc2C=Cc2ccccc21` [6j, N-(2-methoxyethyl)-5H-dibenzo[a,d][7]annulen-5-amine hydrochloride], the IC50 in test [2] and in test [4] was more than 100 µM throughout. In addition, the inhibition at 3 µM was 60 ± 4.39% on hGluN1/hGluN2B [3] and 35.6 ± 1.09% against hGluN1/hGluN2A [5].
With `C1=Cc2ccccc2C(N2CCCC2)c2ccccc21` [6k, 1-(5H-dibenzo[a,d][7]annulen-5-yl)pyrrolidine hydrochloride], the IC50 in test [2] and in test [4] was more than 100 µM each time. For the same compound, the inhibition at 3 µM turned out to be 85.53 ± 0.21% at hGluN1/hGluN2B [3] and 48.6 ± 2.99% on hGluN1/hGluN2A [5].
As to `OCCNC1c2ccccc2C=Cc2ccccc21` [6l, 2-((5H-dibenzo[a,d][7]annulen-5-yl)amino)ethanol hydrochloride], the IC50 in test [2] and in test [4] was more than 100 µM in each case. The values for the inhibition at 3 µM against hGluN1/hGluN2B [3] and against hGluN1/hGluN2A [5] were 48.8 ± 4.13% and 38.2 ± 3.8%, respectively.

Broadly, the IC50 is the point on the concentration scale where inhibition reaches its midpoint. A word on the inhibition: it is how much of the control response was suppressed. Low values mean little suppression, high ones strong suppression.

The values are drawn from publication doi:10.1101/2024.06.17.599304v1, “Dizocilpine derivatives with neuroprotective effect lacking the psychomimetic side effects” (biorxiv, 2024).
